Biological target: T1, FAAH (Homo sapiens, UniProt O00519)
T1 construct: The full length FAAH was subcloned into the mammalian expression vector, pcDEF.neo; expressed in transfected cells; cDNA from Origene
T1 sequence (O00519 1-579): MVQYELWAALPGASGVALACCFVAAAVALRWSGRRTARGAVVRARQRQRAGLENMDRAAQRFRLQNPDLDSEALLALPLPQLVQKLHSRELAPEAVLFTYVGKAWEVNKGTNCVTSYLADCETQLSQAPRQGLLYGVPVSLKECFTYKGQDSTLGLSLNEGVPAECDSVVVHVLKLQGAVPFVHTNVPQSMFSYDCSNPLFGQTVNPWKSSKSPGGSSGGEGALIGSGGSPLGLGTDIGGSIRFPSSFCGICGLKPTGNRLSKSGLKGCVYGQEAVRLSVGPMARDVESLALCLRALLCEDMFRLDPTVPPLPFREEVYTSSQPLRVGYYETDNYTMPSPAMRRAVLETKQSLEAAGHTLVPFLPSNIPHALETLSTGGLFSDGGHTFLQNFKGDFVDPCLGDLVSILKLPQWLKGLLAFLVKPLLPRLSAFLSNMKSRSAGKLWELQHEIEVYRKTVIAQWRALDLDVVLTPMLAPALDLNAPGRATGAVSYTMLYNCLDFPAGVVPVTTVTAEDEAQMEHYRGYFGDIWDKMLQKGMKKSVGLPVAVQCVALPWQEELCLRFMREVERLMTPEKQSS
Test: FAAH enzyme assay, lysate of CHO cells expressing human FAAH
Assay type: biochemical
Conditions: cell lysate, read-out: FAAH Human Cell Lysate IC50
Text: To assist in assay development stable cell lines for human, murine and rat full length FAAH were developed. Human FAAH cDNA (Accession No: NM_001441.1) was purchased from Origene (Rockville, Md.). The full length FAAH was subcloned into the mammalian expression vector, pcDEF.neo, using XbaI and […] restriction sites and used for stable cell line generation.
CHO cells expressing FAAH were used to prepare either crude cell lysate or microsome fractions. To harvest cells, tissue culture media was decanted, the monolayer washed three times with Ca^++Mg^++ free PBS and cells recovered after 15 min in enzyme free dissociation media (Millipore Corp, Billerica, Mass.). Cells were collected by centrifuging at 2000 rpm for 15 min. and the cell pellet re-suspended with 50 mM HEPES (pH 7.4) containing 1 mM EDTA and the protease inhibitors aprotinin (1 mg/ml) and leupeptin (100 μM). The suspension was sonicated at 4° C. and the cell lysate recovered after centrifuging at 12,000×g (14,600 rpm, SS34 rotor) for 20 min at 4° C. to form a crude pellet of cell debris, nuclei, peroxisomes, lysosomes, and mitochondria; the supernatant or cell lysate was used for FAAH enzyme assay. In some cases, microsomes fractions enriched in FAAH were prepared by centrifuging the cell lysate further at 27,000 rpm (100,000×g) in SW28 rotor for 50 minutes at 4° C. The pellet containing FAAH-enriched microsomes was re-suspend in 50 mM HEPES, (pH 7.4) 1 mM EDTA, and any remaining DNA sheared by passage of material through a 23 gauge needle and aliquots of enzyme were store at −80° C. prior to use.
(American Radiolabeled Chemicals; 1 mCi/ml) with FAAH (Life Sciences (1995), 56, 1999-2005 and Journal of Pharmacology and Experimented Therapeutics (1997), 283, 729-734), Analytical. Biochemistry (2003), 318, 270-5. In addition, routine assays were performed monitoring hydrolysis of arachidonyl-7-amino-4-methylcoumarin amide (AAMCA) by following increase in fluorescence upon release of 7-amino 4-methyl coumarin (λEX=355 nm, (λEM=460 nm). Analytical. Biochemistry (2005). 343, 143-51.
Assays are performed on either cell lysate or microsome fractions prepared as described or in whole cell format employing either the fluorescent substrate AAMCA (Cayman chemical, Ann Arbor, Mich.,) or ^3H-anandmaide ([ETHANOLAMINE-1-3H]American Radiolabeled Chemicals; 1 mCi/ml). The cell lysate or microsome assay is performed in Costar black wall, clear bottom plates by adding FAAH_CHO (whole cell, cell lysate or microsome) in assay buffer (50 mM Phosphate, pH 8.0, 1 mM EDTA, 200 mM KCl, 0.2% glycerol, 0.1% fatty acid free BSA) to each well, followed by either DMSO or compound and allowed to incubate at 22-25° C. for fifteen minutes. AAMCA substrate was used to achieve a final concentration of 1 μM and reaction allowed to proceed at room temperature for 1-3 hours. Fluorescent release as a measure of FAAH activity was monitored by reading the plate in a CytoFluor Multiplate Reader ([…]). Whole cell assay is conducted with cells harvested after rinsing tissue culture flasks three times with Ca^++Mg^++ free PBS, incubating for 10 mm in Enzyme free dissociation media and centrifuging for 5 minutes at 1,000 rpm in table top centrifuge. Cells are resuspended in assay buffer at desired cell number in (4×10^4 cells/assay in 96-well format; 1×10^4 cells/assay in 384-well format) and assayed as described.
Alternatively, assays are performed using anandamide [ethanolamine 1-^3H] (specific activity of 10 Ci/mmol) diluted with cold anandamide to achieve a final assay concentration of 1 μM anandamide (˜50,000 cpm). Enzyme (CHO cell lysate, brain or liver homogenate) is incubated in assay buffer (50 mM Phosphate, pH 8.0, 1 mM EDTA, 200 mM KCl, 0.2% glycerol, 0.1% fatty acid free BSA) with inhibitor at 25° C. for 30 minutes. The reaction was terminated by addition of 2 volumes of chloroform:methanol (1:1) and mixed by vortexing. […]

IC50 | Compound
79 nM | 6-{4-[(5-chloropyridin-2-yl)sulfanyl]-1-(2-fluoroethyl)-1H-pyrazol-3-yl}-2-(difluoromethyl)quinoline [Example 333]
18 nM | O=C1NCCc2cc(-c3nn(-c4ccc(F)cc4)cc3Sc3ccc(Cl)cc3)ccc21 [Example 308, 6-{4-[(4-chlorophenyl)sulfanyl]-1-(4-fluorophenyl)-1H-pyrazol-3-yl}-3,4-dihydroisoquinolin-1(2H)-one]
16 nM | CCN1CCc2cc(-c3nn(-c4ccc(F)cc4)cc3Sc3ccc(Cl)cc3)ccc2C1=O [Example 309, 6-{4-[(4-chlorophenyl)sulfanyl]-1-(4-fluorophenyl)-1H-pyrazol-3-yl}-2-ethyl-3,4-dihydroisoquinolin-1(2H)-one]
72 nM | O=C1NCCc2cc(-c3n[nH]cc3Sc3ccc(Cl)cc3)ccc21 [Example 310, 6-{4-[(4-chlorophenyl)sulfanyl]-1H-pyrazol-3-yl}-3,4-dihydroisoquinolin-1(2H)-one]
91 nM | O=C1NCCc2cc(-c3nn(CCF)cc3Sc3ccc(Cl)cc3)ccc21 [Example 311]
228 nM | O=c1[nH]cnc2cc(-c3n[nH]cc3Sc3ccc(Cl)cc3)ccc12 [Example 312, 7-{4-[(4-chlorophenyl)sulfanyl]-1H-pyrazol-3-yl}-quinazolin-4(3H)-one]
8.7 nM | O=c1[nH]cnc2cc(-c3nn(-c4ccc(F)cc4)cc3Sc3ccc(Cl)cc3)ccc12 [Example 313, 7-{4-[(4-chlorophenyl)sulfanyl]-1-(4-fluorophenyl)-1H-pyrazol-3-yl}quinazolin-4(3H)-one]
202 nM | O=c1c2ccc(-c3nn(C4CC4)cc3Sc3ccc(Cl)cc3)cc2ncn1C1CC1 [Example 314, 7-{4-[(4-chlorophenyl)sulfanyl]-1-cyclopropyl-1H-pyrazol-3-yl}-3-cyclopropylquinazolin-4(3H)-one]
86 nM | O=c1[nH]cnc2cc(-c3nn(C4CC4)cc3Sc3ccc(Cl)cc3)ccc12 [Example 315, 7-{4-[(4-chlorophenyl)sulfanyl]-1-cyclopropyl-1H-pyrazol-3-yl}quinazolin-4(3H)-one]
5.8 nM | CN(C)C(=O)c1ccc2cc(-c3n[nH]cc3Sc3ccc(Cl)cn3)ccc2n1 [Example 330, 6-{4-[(5-chloropyridin-2-yl)sulfanyl]-1H-pyrazol-3-yl}-N,N-dimethylquinoline-2-carboxamide]
77 nM | CN(C)C(=O)c1ccc2cc(-c3nn(C4CC4)cc3Sc3ccc(Cl)cn3)ccc2n1 [Example 331, 6-{4-[(5-chloropyridin-2-yl)sulfanyl]-1-cyclopropyl-1H-pyrazol-3-yl}-N,N-dimethylquinoline-2-carboxamide]
268 nM | FC(F)c1ccc2cc(-c3n[nH]cc3Sc3ccc(Cl)cn3)ccc2n1 [Example 332]
8 nM | O=C1NCCc2cc(-c3nn(-c4ccccn4)cc3Sc3ccc(Cl)cc3)ccc21 [Example 335]
6 nM | CCN1CCc2cc(-c3nn(-c4ccccn4)cc3Sc3ccc(Cl)cc3)ccc2C1=O [Example 338]
2.7 nM | O=C1c2ccc(-c3nn(-c4ccccn4)cc3Sc3ccc(Cl)cc3)cc2CCN1CCF [Example 339]
25 nM | CCN1CCc2cc(-c3nn(CC)cc3Sc3ccc(Cl)cc3)ccc2C1=O [Example 340]
47 nM | CCn1cc(Sc2ccc(Cl)cc2)c(-c2ccc3c(c2)CCN(CCF)C3=O)n1 [Example 341]
16 nM | CCn1cc(-n2cc(Sc3ccc(Cl)cc3)c(-c3ccc4c(c3)CCNC4=O)n2)cn1 [Example 344]
36 nM | O=C1CCc2cc(-c3nn(-c4ccccn4)cc3Sc3ccc(Cl)cc3)ccc2N1 [Example 345]
15 nM | O=C1CCc2cc(-c3nn(-c4ccccn4)cc3Sc3ccc(Cl)cc3)ccc2N1CCF [Example 346]
12 nM | CCn1cc(-n2cc(Sc3ccc(Cl)cc3)c(-c3ccc4c(=O)[nH]cnc4c3)n2)cn1 [Example 347]
36 nM | CCn1cc(-n2cc(Sc3ccc(Cl)cc3)c(-c3ccc4c(=O)n(-c5cnn(CC)c5)cnc4c3)n2)cn1 [Example 348]

IC50 | Compound
59 nM | CC(C)(O)c1ccc(-c2nn(-c3ccc(F)cn3)cc2Sc2ccc(Cl)cc2)nn1 [Example 349]
103 nM | CC(C)(O)c1ccc(-c2nn(-c3ccc(F)cn3)cc2Sc2ccc(Cl)cn2)nn1 [Example 350]
246 nM | CC(C)(O)c1ccc(-c2nn(-c3cnn(C4CC4)c3)cc2Sc2ccc(Cl)cc2)nn1 [Example 351]
2.2 nM | CCOC(=O)c1ccc2cc(-c3nn(C)cc3Sc3ccc(Cl)cc3)ccc2n1 [Example 352]
0.47 nM | Cn1cc(Sc2ccc(Cl)cc2)c(-c2ccc3nc(C(N)=O)ccc3c2)n1 [Example 353]
0.93 nM | CCOC(=O)c1ccc2cc(-c3n[nH]cc3Sc3ccc(Cl)cc3)ccc2n1 [Example 354]
1.38 nM | CCNC(=O)c1ccc2cc(-c3n[nH]cc3Sc3ccc(Cl)cc3)ccc2n1 [Example 355]
121 nM | CC(C)(O)c1ccc2cc(-c3nn(CCF)cc3Sc3ccc(Cl)cc3)ccc2n1 [Example 357]
423 nM | CC(C)(O)c1ccc2cc(-c3n[nH]cc3Sc3ccc(Cl)cc3)ccc2n1 [Example 358]
101 nM | CC(=O)N1CCc2cc(-c3n[nH]cc3Sc3ccc(Cl)cc3)ccc2C1 [Example 359]
9.8 nM | CC(=O)N1CCc2cc(-c3nn(C4CC4)cc3Sc3ccc(Cl)cc3)ccc2C1 [Example 360]
48 nM | CC(=O)N1CCc2cc(-c3nn(CCF)cc3Sc3ccc(Cl)cc3)ccc2C1 [Example 362]
23 nM | N#Cc1ccc2cc(-c3n[nH]cc3Sc3ccc(Cl)cc3)ccc2n1 [Example 363]
131 nM | Cn1cc(Sc2ccc(Cl)cc2)c(-c2ccc3nc(C#N)ccc3c2)n1 [Example 364]
7.2 nM | CCNC(=O)c1ccc2cc(-c3nn(CCF)cc3Sc3ccc(Cl)cc3)ccc2n1 [Example 366]
20 nM | CCNC(=O)c1ccc2cc(-c3nn(CC(F)F)cc3Sc3ccc(Cl)cc3)ccc2n1 [Example 367]
24 nM | CCNC(=O)c1ccc2cc(-c3nn(C(C)C)cc3Sc3ccc(Cl)cc3)ccc2n1 [Example 368]
1.6 nM | CCNC(=O)c1ccc2cc(-c3nn(CC4CC4)cc3Sc3ccc(Cl)cc3)ccc2n1 [Example 369]
12 nM | CCNC(=O)c1ccc2cc(-c3nn(CC(C)C)cc3Sc3ccc(Cl)cc3)ccc2n1 [Example 370]
4 nM | CCOC(=O)c1cnc2cc(-c3nn(CCF)cc3Sc3ccc(Cl)cc3)ccc2c1 [Example 371]
30 nM | OCc1ccc2cc(-c3nn(CCF)cc3Sc3ccc(Cl)cc3)ccc2n1 [Example 372]
